# Patent publication US11427575B2, “Antitumor compound for activating JWA gene and degrading HER2, preparation method thereof, and application thereof” (SIMCERE PHARMACEUTICAL CO., LTD., priority 2019, dated 2022)
# Like-named read-outs stand apart in the source and are kept apart here.
# How the values were obtained:
# promoter of JWA gene = experiment: Luciferase reporter gene under control of JWA gene promoter in HBE cells (high-throughput screening); type: cell-based, human; settings: for fluorescence intensity of reporter gene: 48 h
# Description: High-throughput screening (HTS) was used to identify the human bronchial epithelial (HBE) cells stably transfected with a DNA construct with a luciferase gene under control of a 2,000 bp long promoter of JWA gene.
# FIG. 1 is a sequence containing the 2000 bp promoter sequence of JWA gene that was used for a luciferase reporter gene plasmid construction.
# BT474 cells = settings: BT474, 1 and 10 μM, 10-15 d, vs control
# Method: (§1) Two human breast cancer cell lines BT474 and SKBR3 were incubated in DMEM medium containing, respectively, 20% and 10% fetal bovine serum (FBS), conventional double-antibody, and were placed in a 37° C. incubator with 5% CO2. The BT474 and SKBR3 cells in the logarithmic growth phase were transferred into 6-well plates for 800 cells per well. After the cells adhered to the walls of the plates, the cells were cultured in the medium containing different concentrations (0, 1, and 10 μM) of JAC1, respectively. By observing the formation of each cell colony, the cells were continued to be cultured for 10-15 d, followed by removal of medium. After fixation with methanol and photographing, the number of the cell colonies (each containing more than 50 cells) was counted using the software ImageJ, and the computer program SPSS is used for statistical analysis.
# SKBR3 cells = settings: SKBR3, 1 and 10 μM, 10-15 d, vs control
# Method: as §1
# HER2 protein [1] = experiment: Laser confocal immunofluorescence in HER2-positive breast cancer cells, HER2 level and localization; type: cell-based, human; settings: immunofluorescence, 0, 1, 10 μM, 24 h
# Method: The cells were inoculated into a 35 mm glass bottom dish, treated with different concentrations (0, 1, and 10 μM) of JAC1 for 24 h, fixed with methanol for 15 min, washed three times with PBST, blocked with normal sheep serum for 1 h, and incubated in primary antibody overnight at 4° C. The cells were then washed three times with PBST, incubated in fluorescent secondary antibody and 4′,6-diamidino-2-phenylindole (DAPI), and photographed using a laser confocal scanning microscopy.
# JWA protein [2] = experiment: Western blot in HER2-positive breast cancer cells, JWA; type: cell-based, human; settings: increasing concentration, 24 h
# Method: (§2) The cells in the logarithmic growth phase were routinely digested, and transferred into 6-well plates at the cell density of 40%-50%. The cells were incubated with different concentrations of JAC1 for 24 h, followed by an addition of 0.1 mL of Radioimmunoprecipitation Assay Butter (RIPA, containing 0.5% phenylmethylsulfonyl fluoride (PMSF)) for protein extraction. After centrifugation at 12,000×g for 15 min, the supernatant was collected, and brought to a determination of protein concentration and a boil. Protein electrophoresis was performed with 10% polyacrylamide gel. The protein was transferred into the gel wells for 40 μg protein per well, migrated at 60 V for 30 min, and 90 V for 1.5-2 h. After gel electrophoresis, the protein was transferred by wet method from gel to a PVDF membrane, and blocked with 5% skim milk at room temperature for 1-2 h. The membrane was washed with Tris-Buffered Saline and Tween 20 (TBST, containing 0.1% Tween 20) three times for 5 min each, and incubated in the corresponding primary antibody overnight at 4° C. The membrane was then washed with the TBST (containing 0.1% Tween 20) three times for 5 min each, incubated in the secondary antibody at room temperature for 1-2 h, and washed with the TBST (containing 0.1% Tween 20) eight times for 5 min each. […]
# HER2 protein [3] = experiment: Western blot in HER2-positive breast cancer cells, HER2; type: cell-based, human; settings: increasing concentration, 24 h
# Method: as §2
# [4] = system: BT474 human breast cancer cells; experiment: Tumor growth in nude mice subcutaneously transplanted with BT474 cells; type: in vivo, BALB/c nude mice; settings: for tumor growth (tumor volume): vs blank control; for tumor weight / tumor weight/mouse body weight ratio: P<0.05
# Method: (§3) BT474 human breast cancer cells in the logarithmic growth phase were suspended in ice-cold suspension buffer for a final concentration of 5×10^6/100 μL, followed by subcutaneous transplantations of the suspended cells into BALB/c nude mice. When the tumor grown up to 75-125 mm^3, the BALB/c nude mice were randomly divided into five equal groups, including a blank control group (Mock), a solvent control group (Vehicle), a 50 mg/kg JAC1 treatment group, a 100 mg/kg JAC1 treatment group, and a positive control group treated with Pacilitaxel and Trastuzumab (TH). Dose and administration: JAC1 was injected intraperitoneally into mice once daily; the dosage of Trastuzumab was 10 mg/kg injected intraperitoneally twice a week; the dosage of Pacilitaxel was 20 mg/kg injected intraperitoneally once a week. From the day of administration, mouse body weights and tumor diameters were measured every other 2 days, and the tumor volume was calculated using an equation. When the mice reached a humane endpoint at which the tumor volume increased to 2500-3000 mm^3, the research based on the mouse models was terminated and the laboratory mice were anesthetized and euthanized in a timely manner to alleviate animal suffering and perform the statistical analysis.
# HER2 protein [5] = experiment: Western blot of subcutaneous BT474 tumors, HER2; type: in vivo, BALB/c nude mice; settings: treatment group
# Method: as §3, with “analysis. […]” for “analysis.”
# [6] = H&E staining, tumor-bearing nude mice
# Description: A model of nude mice subcutaneously transplanted with human breast cancer cells was built with reference to the method of Example 16. The laboratory mice that have been modeled were anesthetized and euthanized to observe and determine whether damage occurred to the major organs of laboratory mice. The major organs tissues from the laboratory mice, such as heart, liver, spleen, lung, kidney, and brain, were fixed in formalin solution using conventional methods. After paraffin embedding and tissue sectioning, the thick tissue sections were stained with H&E to observe whether the organ tissues were normal in morphology.
# JWA protein [7] = settings: 10 μM, 48 h
# Description: (§4) A HER2-positive BGC823 human gastric cancer cell line was established in which JWA gene was deleted using Crisp/cas9 technology. […] After protein extraction, western blotting technology was used to determine the expression levels of JWA and HER2 proteins in the wild-type cell line (JWA WT) and the JWA-knockout cell line (JWA KO).
# HER2 protein [8] = experiment: Western blot in BGC823 gastric cancer cells (JWA WT and JWA KO), HER2; type: cell-based, human; settings: 10 μM, 48 h
# Description: as §4
compound,measurement,setting,value
"COc1cccc2sc(Nc3nc4c(F)cccc4s3)nc12 [JAC1, 4-fluoro-N-(4-methoxybenzene (d)thiazole-2-group) benzene (d) thiazole-2-amine]",fluorescence intensity of reporter gene,promoter of JWA gene; 0.05 μg/mL,13560.00
same,fluorescence intensity of reporter gene,promoter of JWA gene; 0.10 μg/mL,16200.00
same,fluorescence intensity of reporter gene,promoter of JWA gene; 0.21 μg/mL,21975.00
same,fluorescence intensity of reporter gene,promoter of JWA gene; 0.41 μg/mL,28186.67
same,fluorescence intensity of reporter gene,promoter of JWA gene; 0.83 μg/mL,38760.00
same,fluorescence intensity of reporter gene,promoter of JWA gene; 1.65 μg/mL,54293.33
same,fluorescence intensity of reporter gene,promoter of JWA gene; 3.30 μg/mL,68080.00
same,activation of JWA gene,promoter of JWA gene; result in words,particularly significant effect on activation of JWA gene
same,colony-forming ability,BT474 cells,significantly reduce the colony-forming ability
same,colony-forming ability,SKBR3 cells,significantly reduce the colony-forming ability
same,HER2 protein level,HER2 protein [1],HER2 protein level reduced
same,cellular localization of HER2 protein,HER2 protein [1],no effect on the localization of HER2 protein in the cell membrane
same,JWA protein level,JWA protein [2],JWA protein level increased
same,HER2 protein level,HER2 protein [3],HER2 protein level decreases
same,tumor growth (tumor volume),[4]; 50 mg/kg intraperitoneally once daily,obvious results at suppressing tumor growth
same,Tumor growth inhibition rate,[4]; 50 mg/kg ip once daily,31.22%
same,tumor weight,[4]; 50 mg/kg ip once daily,reduced
same,tumor weight/mouse body weight ratio,[4]; 50 mg/kg ip once daily,decreased
same,tumor growth (tumor volume),[4]; 100 mg/kg intraperitoneally once daily,obvious results at suppressing tumor growth
same,Tumor growth inhibition rate,[4]; 100 mg/kg ip once daily,46.21%
same,tumor weight,[4]; 100 mg/kg ip once daily,reduced
same,tumor weight/mouse body weight ratio,[4]; 100 mg/kg ip once daily,decreased
same,HER2 protein level in tumor,HER2 protein [5],repressed significantly
same,"morphology of major organs (heart, liver, spleen, lung, kidney, brain)",[6],no obvious anomalies were observed
same,JWA expression level,JWA protein [7]; BGC823 JWA KO,no effect
same,JWA protein level,JWA protein [7]; BGC823 JWA WT,significantly increase JWA protein level
same,HER2 expression level,HER2 protein [8]; BGC823 JWA KO,no effect
same,HER2 expression,HER2 protein [8]; BGC823 JWA WT,repress HER2 expression
